According to patent US8691184B2, “Bcl-2/Bcl-xL inhibitors and therapeutic methods using the same” (The Regents of the University of Michigan, priority 2011, dated 2014):

Assays:
RS4;11 cells = test: Cell growth assay (WST-8), RS4;11; assay type: cell-based; conditions: Homo sapiens, RS4-11, 96 h; Table 3, 4 days; read-out: Cell Growth Inhibition (IC50 ± SD) RS4; 11
Method: (§1) RS4;11 and H146 cells were seeded in 96-well cell culture plates at a density of 10,000 cells/well with serially diluted compounds and incubated at 37° C. in an atmosphere of 95% air and 5% CO2 for 4 days. Cell viability was determined using the WST-8 (2-(2-methoxy-4-nitrophenyl)-3-(4-nitrophenyl)-5-(2,4-disulfophenyl)-2H-tetrazolium, monosodium salt) based Cell Counting-8 Kit (Dojindo Molecular Technologies, Inc., Rockville, Md.) according to the manufacture's instruction. Briefly, WST-8 was added to each well at a final concentration of 10% (v/v), and then the plates were incubated at 37° C. for 1˜2 hours for color development. The absorbance was measured at 450 nm using a SPECTRAmax PLUS plate reader (Molecular Devices, Sunnyvale, Calif.). The half maximal inhibitory concentration (IC50) was calculated using the GraphPad Prism 5 software (GraphPad Software, La Jolla, Calif.).

H146 cells = test: Cell growth assay (WST-8), H146; assay type: cell-based; conditions: Homo sapiens, NCI-H146, 96 h; Table 3, 4 days; read-out: Cell Growth Inhibition (IC50 ± SD) H146
Method: as §1

[1] = test system: ML-2 acute myeloid leukemia (AML) cell line; test: Cell growth assay (WST-8), ML-2; assay type: cell-based; conditions: Table 3; read-out: Cell Growth Inhibition (IC50 ± SD) ML-2
[2] = test system: H146 small-cell lung cancer cell line; test: Cell death assay (trypan blue), H146; assay type: cell-based; conditions: for Cell death induction in H146: trypan blue assay; for H146 cells undergoing cell death: 24-hr treatment, trypan blue
Method: Cell death assay was performed using a Trypan blue exclusion test of cell viability. One million cells were seeded in 6-well plates and incubated at 37° C. in an atmosphere of 95% air and 5% CO2 with or without compounds for the indicated time points. At the end of treatment, cells were collected and centrifuged at 1000 rpm for 5 minutes. The cell pellets were re-suspended in PBS and mixed with 0.4% Trypan blue (Invitrogen) at 1:1 dilution to determine cell viability using Olympus CKX41 microscope (Olympus, Center Valley, Pa.).

ML-2 AML cell line = test: Apoptosis assay (Annexin-V/PI flow cytometry), ML-2; assay type: cell-based; conditions: 300 nM, 24 hr
Method: (§2) Apoptosis assay was performed using the Annexin-V-FLUOS Staining kit (Roche Diagnostics, Indianapolis, Ind.) according to the manufacturer's instruction. Briefly, cells were treated with compounds for the indicated time points, harvested and washed with PBS. Cells were stained with Annexin V-FITC and Propidium iodide for 15 minutes at room temperature in the dark before analyzed with a BD Biosciences FACSCaliburs (Becton Dickinson).

RS4;11 cell line [3] = test: Apoptosis assay (Annexin-V/PI flow cytometry), RS4;11; assay type: cell-based; conditions: for Apoptosis induction in RS4;11: time- and dose-dependent; for Apoptosis induction in RS4;11 / RS4;11 cells undergoing apoptosis: Annexin-V/PI; for RS4;11 cells undergoing apoptosis: within 4 hrs
Method: as §2

RS4;11 cell line [4] = test: Western blot of PARP and caspase-3 cleavage, RS4;11; assay type: cell-based; conditions: as low as 100 nM, 8-hr treatment
Method: (§3) Cells were lysed with lysis buffer (PBS containing 1% NP40, 0.5% Na-deoxycholate, and 0.1% SDS) supplemented with protease inhibitors (α-complete, Roche). The protein extracts were quantified using a calorimetric assay (Bradford Reagent) (BioRad, Hercules, Calif.). Proteins were electrophoresed onto 4-20% SDS-PAGE gels (Invitrogen) and transferred onto polyvinylidene difluoride membranes (Bio-Rad). Following blocking in 5% milk, membranes were incubated with a specific primary antibody, washed, and incubated with horseradish peroxidase-linked secondary antibody (Pierce). The signals were visualized with the chemiluminescent horseradish peroxidase antibody detection reagent (Denville Scientific).

H146 cell line [5] = test: Western blot of PARP and caspase-3 cleavage, H146; assay type: cell-based; conditions: as low as 100 nM, 8-hr treatment
Method: as §3

ML-2 cell line = test: Western blot of PARP and caspase-3 cleavage, ML-2; assay type: cell-based; conditions: as low as 100 nM, 8-hr treatment
Method: as §3

cellular Bcl-2/Bcl-xL = test: Competitive pull-down against Biotin-150 in ML-2 and H146 cell lysates; assay type: binding; conditions: competitive experiment
H146 cell line [6] = test: Cytochrome c and Smac release assay, H146; assay type: cell-based; conditions: H146, 300 nM, within 2 hr
Method: (§4) Four million of H146 or RS4;11 cells were treated with compounds at 37° C. in an atmosphere of 95% air and 5% CO2 for the indicated time points, washed with PBS and re-suspended in 100 μl of digitonin buffer (75 mM NaCl, 8 mM Na2HPO4, 1 mM NaH2PO4, 1 mM EDTA, 350 μg/ml digitonin, and 250 mM sucrose). Cytosolic fractions were separated from organelle membrane fraction by centrifugation at 13,000 rpm for 1 min. The cytosolic fractions were resolved on a 12% SDS-PAGE and probed using anti-cytochrome c antibody (BD Biosciences) and anti-Smac (Cell Signaling Technology, Danvers, Mass.) antibody.
(§5) Potent and bona fide Bcl-2/Bcl-xL inhibitors are predicted to induce apoptosis in cancer cells by binding to cellular Bcl-2 and Bcl-xL proteins, antagonizing their anti-apoptotic function and triggering rapid release of Smac and cytochrome c from mitochondria. Furthermore, the release of Smac and cytochrome c should take place before apoptosis. Accordingly, compound 150 was tested for its ability to induce cytochrome c and Smac release in the RS4;11 and H146 cell lines.

RS4;11 cell line [7] = test: Cytochrome c and Smac release assay, RS4;11; assay type: cell-based; conditions: RS4;11, 100 nM, within 30 minutes
Method: as §4, §5

[8] = Toxicity (maximum tolerated dose) in SCID mice; assay type: in vivo; conditions: for Weight loss at higher dose: SCID mice; for Weight loss or other signs of toxicity: female SCID mice, intravenously, daily, 5-times a week for 2 weeks
Text: These experiments established the maximum tolerated doses (MTD).

Bcl-2 = Bcl-2 (Homo sapiens, UniProt P10415); test: FP-based binding assay, Bcl-2
Chain of Bcl-2 (P10415 whole entry): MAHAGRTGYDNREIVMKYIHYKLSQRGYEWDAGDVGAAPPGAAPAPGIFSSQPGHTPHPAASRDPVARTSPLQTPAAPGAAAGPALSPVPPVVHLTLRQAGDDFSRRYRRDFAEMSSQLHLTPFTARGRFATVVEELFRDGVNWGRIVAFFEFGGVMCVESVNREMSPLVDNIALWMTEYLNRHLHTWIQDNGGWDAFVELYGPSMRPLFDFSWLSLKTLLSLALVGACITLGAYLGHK

Bcl-xL = Bcl-xL (Homo sapiens, UniProt Q07817); test: FP-based binding assay, Bcl-xL; conditions: Table 2, FP-based assay
Chain of Bcl-xL (Q07817 whole entry): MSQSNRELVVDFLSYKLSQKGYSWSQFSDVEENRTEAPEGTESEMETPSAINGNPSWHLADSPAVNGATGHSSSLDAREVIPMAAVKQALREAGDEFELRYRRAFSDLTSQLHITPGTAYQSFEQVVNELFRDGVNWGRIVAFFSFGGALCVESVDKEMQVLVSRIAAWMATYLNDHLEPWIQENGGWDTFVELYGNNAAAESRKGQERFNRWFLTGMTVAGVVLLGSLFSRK

RS4;11 xenograft tumors = test: Apoptosis induction in RS4;11 xenograft tumors; assay type: in vivo, SCID mice; conditions: RS4;11 model, single dose
Method: (§6) Compounds 150, 133, and 169 were tested for their toxicity in severe combined immunodeficiency (SCID) mice. SCID mice bearing xenograft tumors were treated with vehicle control, or a single dose of a compound, and tumors were removed at different time-points for western blot analysis of cleavage of PARP (CL-PARP) and caspase-3 (CL Cas-3). The ability of compounds 150 and 169 to induce apoptosis at their MTD in RS4;11 or H146 xenograft tumors in SCID mice was tested. In these experiments, RS4;11 or H146 tumors were allowed to grow to 200-300 mm^3 in female SCID mice. A single dose of the compound was administered to the animals and tumor tissues were analyzed for cleavage of PARP and caspase-3.

H146 xenograft tumors [9] = test: Apoptosis induction in H146 xenograft tumors; assay type: in vivo, SCID mice
Method: as §6

H146 xenograft tumors [10] = test: Antitumor activity in the H146 xenograft tumor model; assay type: in vivo
Method: The antitumor activity of compound 169 in the H146 xenograft tumor model also was tested. […] At the end of the treatment (day 39), compound 169 inhibited the tumor growth by 100% (p<0.0001, t-test).

## CN(C)CC[C@H](CSc1ccccc1)Nc1ccc(S(=O)(=O)NC(=O)c2ccc(N3CCN(Cc4ccccc4-c4ccc(Cl)cc4)CC3)cc2)cc1[N+](=O)[O-] [ABT-737, reference compound]
RS4;11 cells
  IC50: 12 ± 6 nM
H146 cells
  IC50: 62 ± 39 nM
[1]
  IC50: 16 ± 2 nM
[2]
  Cell death induction in H146: effectively induced cell death
ML-2 AML cell line
  ML-2 cells undergoing apoptosis: about 50%
RS4;11 cell line [3]
  Apoptosis induction in RS4;11: highly effective in induction of apoptosis
RS4;11 cell line [4]
  Cleavage of PARP and caspase-3: highly effective in induction of cleavage of PARP and caspase-3
H146 cell line [5]
  Cleavage of PARP and caspase-3: highly effective in induction of cleavage of PARP and caspase-3
ML-2 cell line
  Cleavage of PARP and caspase-3: highly effective in induction of cleavage of PARP and caspase-3
Cellular Bcl-2/Bcl-xL
  Blocking of interaction of cellular Bcl-2/Bcl-xL with Biotin-150: blocked the interaction of cellular Bcl-2/Bcl-xL and Biotin-150 in a dose-dependent manner

## Cc1c(C(=O)NCCCN2CCN(C)CC2)c(-c2cccc(N3CCN(c4ccc(NS(=O)(=O)c5ccc(N[C@H](CCN(C)C)CSc6ccccc6)c([N+](=O)[O-])c5)cc4)CC3)c2)c(-c2ccc(Cl)cc2)n1C [Compound 150]
RS4;11 cells
  IC50: 38 ± 24 nM
H146 cells
  IC50: 102 ± 44 nM
[1]
  IC50: 185 ± 84 nM
[2]; 30 nM
  H146 cells undergoing cell death: 40%
[2]; 100 nM
  H146 cells undergoing cell death: > 70%
[2]
  Cell death induction in H146: effectively induced cell death
ML-2 AML cell line
  ML-2 cells undergoing apoptosis: about 50%
RS4;11 cell line [3]; 100 nM, 16 hr time-point
  RS4;11 tumor cells undergoing apoptosis: > 50%
RS4;11 cell line [3]; 100 nM
  RS4;11 cells undergoing apoptosis: 30%
RS4;11 cell line [3]; 300 nM
  RS4;11 cells undergoing apoptosis: 60%
RS4;11 cell line [3]
  Apoptosis induction in RS4;11: highly effective in induction of apoptosis
RS4;11 cell line [4]
  Cleavage of PARP and caspase-3: highly effective in induction of cleavage of PARP and caspase-3
H146 cell line [5]
  Cleavage of PARP and caspase-3: highly effective in induction of cleavage of PARP and caspase-3
ML-2 cell line
  Cleavage of PARP and caspase-3: highly effective in induction of cleavage of PARP and caspase-3
H146 cell line [6]
  Release of cytochrome c and Smac from mitochondria: strong release of cytochrome c and Smac
RS4;11 cell line [7]
  Release of cytochrome c and Smac from mitochondria: robust release of cytochrome c and Smac
Cellular Bcl-2/Bcl-xL
  Blocking of interaction of cellular Bcl-2/Bcl-xL with Biotin-150: blocked the interaction of cellular Bcl-2/Bcl-xL and Biotin-150 in a dose-dependent manner
[8]; 50 mg/kg
  Weight loss at higher dose: caused weight loss
[8]; 25 mg/kg
  Weight loss or other signs of toxicity: no or minimal weight loss or other signs of toxicity
Bcl-2
  Ki: < 1 nM
Bcl-2; read-out: Bcl-2 IC50 ± SD, Table 2, FP-based assay
  IC50: 2 ± 0.6 nM
Bcl-xL; read-out: Bcl-xL IC50 ± SD
  IC50: 9 ± 2 nM
Bcl-xL; read-out: Bcl-xL Ki ± SD, no unit printed in this row
  Ki: 2.4 ± 0.5 nM

## Cc1c(C(=O)O)c(-c2cccc(N3CCN(c4ccc(NS(=O)(=O)c5ccc(N[C@H](CCN6CCC(O)CC6)CSc6ccccc6)c(S(=O)(=O)C(F)(F)F)c5)cc4)CC3)c2)c(-c2ccc(Cl)cc2)n1C.Cl [Compound 169, (R)-5-(4-chlorophenyl)-4-(3-(4-(4-(4-((4-(4-hydroxypiperidin-1-yl)-1-(phenylthio)butan-2-yl)amino)-3-((trifluoromethyl)sulfonyl)phenylsulfonamido)phenyl)piperazin-1-yl)phenyl)-1,2-dimethyl-1H-pyrrole-3-carboxylic acid]
[8]; 75 mg/kg
  Weight loss at higher dose: caused weight loss
[8]
  Weight loss or other signs of toxicity: no or minimal weight loss or other signs of toxicity
RS4;11 xenograft tumors
  Cleavage of PARP and caspase-3 in tumor tissues: strong effect in induction of cleavage of PARP and caspase-3
H146 xenograft tumors [9]; H146, single-dose 50 mg/kg IV, 3 hr and 6 hr-time points
  Cleavage of PARP and caspase-3 in xenograft tumor tissues: induced cleavage of PARP and caspase-3
H146 xenograft tumors [9]; H146 model, single dose
  Cleavage of PARP and caspase-3 in tumor tissues: strong effect in induction of cleavage of PARP and caspase-3
H146 xenograft tumors [10]; day 53, 2 weeks after the treatment was stopped, p=0.0001
  Tumor growth inhibition versus vehicle-treated tumors: 79%
H146 xenograft tumors [10]; during the entire experiment
  Other signs of toxicity: no other signs of toxicity
  Weight loss: < 3%
H146 xenograft tumors [10]; end of the treatment (day 39), p<0.0001
  Tumor growth inhibition: 100%
